A short description of series [1]: In vitro digestion model simulating stomach and small intestine conditions. The series is classed as in vitro ADME. The source says:
This example compares the release of the non-esterified functional ingredient to the esterified functional ingredient during a simulated gastrointestinal study using an in vitro digestion model.
In addition, the partition coefficients for the ester compounds are greater than the parent compounds. These factors indicate that the ester compounds have a greater affinity for the hydrophobic carrier and insoluble matrix material than the parent compounds. […] The reduced rate is most evident when comparing linalool and thymol release from FIG. 4 to linalyl acetate and thymyl acetate release from FIG. 5. This improvement in stability within the model stomach implies increased stability in other low pH systems, such as acidic beverages, and further illustrates the importance of the esters for successful microencapsulation and enteric release of the functional ingredients.
As evident in FIGS. 4 and 5, the gastric release rate was reduced, as well as the release rate from 0-24.5 h, representative of the residence time in the small intestine. FIGS. 6 and 7 show the release rates of two esters of linalool, linalyl acetate in FIG. 6 and linalyl butyrate in FIG. 7 within a digestion model simulating stomach and small intestine conditions and residence times. In addition, the levels of the parent compounds present in the digestion model over time were measured. […]

The conditions of series [2]: versus linalool and thymol, FIG. 3; cited from earlier work.
Series [3] in a line: Evaluation of emulsifiers in oil-in-water emulsion of essential oil blend. The series is classed as physicochemical. Conditions: compared with other emulsifiers. The source says: Various emulsifiers were combined with deionized water at 60 C to produce 2% solutions. The resulting solutions were combined with an essential oil blend composition (4% alpha-pinene, 30% para-cymene, 7% linalool, and 35% thymol and 24% soybean oil) in a 50:50 weight ratio with deionized water to create an oil-in-water emulsion. The emulsifiers evaluated were Glycosperse S-20 KFG (Lonza; Fairlawn, N.J.), Polyaldo 10-1-O KFG (Lonza; Fairlawn, N.J.), Aldosperse MS-20 KFG (Lonza; Fairlawn, N.J.), Polyaldo 10-2-P KFG (Lonza; Fairlawn, N.J.), Ryoto sugar ester (S-1570, Mitsubishi-Kagaku Food Corp.; Tokyo, Japan), Precept 8120 (Central Soya; Fort Wayne, Ind.) and sodium caseinate (Alanate-180, New Zealand Dairy Board; Wellington, New Zealand).

On to `C=CC(C)(CCC=C(C)C)OC(C)=O` (stereo not shown) [linalyl acetate], for which the “hydrolysis of the ester to linalool” value in series [1] is “about 33%”. Besides, in series [2], the “partition coefficient compared with parent compounds” value is listed as “greater” and the “solubility in water compared with parent compounds” value is given as “significantly lower”.

Take `C=CC(C)(CCC=C(C)C)OC(=O)CCC` (stereo not shown) [linalyl butyrate]: the “hydrolysis of the ester to linalool” value in series [1] is “about 5%”. In series [2], the “partition coefficient compared with parent compounds” value is reported as “greater” and the “solubility in water compared with parent compounds” value is “significantly lower”.

With `CC(=O)Oc1cc(C)ccc1C(C)C` [thymyl acetate], in series [2], the “partition coefficient compared with parent compounds” value is “greater” and the “solubility in water compared with parent compounds” value is “significantly lower”.

Turning to sucrose stearate [Example S-1570], the “oil droplets within the emulsion” value in series [3] (2% emulsifier solution, 50:50 with essential oil blend) was “smallest and most uniformly dispersed oil droplets”. Also, the emulsion stability result in series [3] (after 24 hours storage at room temperature) is given as “greatest stability”.

(Values after patent US10716765B2, “Delivery of functional compounds” (Intercontinental Great Brands LLC, priority 2009, dated 2020).)
